Measurements as given in PMC10261210 (Cancer Chemotherapy and Pharmacology, 2023).
Where two headings read alike, the source gives them in different places.

Experiments:
pERK = pERK expression in paired tumor biopsies (H-score, image analysis); assay type: in vivo, human; conditions: for median percentage decrease in pERK staining, day 21 vs baseline: Q2D expansion; for median percentage decrease in pERK expression, day 21 vs baseline: QW melanoma expansion cohort
Description: Based on tissue availability, pharmacodynamic assays included assessment of pERK expression levels in paired biopsy samples (baseline and day 21) from patients in the melanoma dose expansion cohorts. The level of staining was assessed both by a pathologist (semi-quantitative measurements according to H-score assessment) and by quantitated image analysis (Aperio, Leica Biosystems Nussloch, Germany).

[1] = system: relapsed or progressive LGGs harboring BRAF alterations; parameters: method as in ref 33 = [33]; 33. Kilburn L, Landi D, Leary S, Ziegler DS, Baxter P, Franson A, McCowage G, Waanders AJ, Van der Lugt J, Yalon Oren M, Gerber NU, Gottardo NG, Khuong-Quang D-A, Nysom K, Bailey S, Hernáiz Driever P; conditions: interim analysis, first 25 enrolled patients with ≥ 6 months of follow-up, QW monotherapy; cited from earlier work
BRAF V600E mutant = system: BRAF V600E mutant; parameters: method as in doi:10.1016/S1359-6349(10)71810-3; conditions: preclinical studies; cited from earlier work
[2] = system: patients with relapsed or refractory advanced solid tumors; test: phase 1 safety: adverse events (CTCAE v4.03), safety population; assay type: in vivo, human; conditions: for Fatal serious adverse event, MedDRA preferred term: patient
Description: Treatment was to be continued until disease progression, unacceptable toxicity, or the patient discontinued for any other reason, for a maximum duration of 12 months. Treatment could be continued beyond 12 months if it was determined that a patient would derive benefit from such continued therapy.
Adverse events were coded using the Medical Dictionary for Regulatory Activities (MedDRA) Version 19.0 and were graded according to the National Cancer Institute (NCI) Common Terminology Criteria (CTC) for adverse events (CTCAE) (Version 4.03). The assessment period for treatment emergent adverse events (TEAEs) was from the first dose of study treatment to 30 days after the last dose of study medication, or until the start of subsequent antineoplastic therapy, whichever occurred first. Following baseline evaluation, response was assessed by investigators every two cycles by computed tomography or magnetic resonance imaging according to Response Evaluation Criteria in Solid Tumors (version 1.1).
The safety population was defined as all patients who received any amount of tovorafenib. The DLT-evaluable population was defined as all patients in the dose escalation phase of the study who either experienced DLT during cycle 1 or who completed at least 75% of the planned doses and had sufficient follow-up data to allow the investigators and sponsor to determine whether DLT had occurred. […] The PK-evaluable population included all patients who had sufficient dosing data and concentration–time data to permit calculation of PK parameters.

[3] = system: recurrent/progressive low-grade gliomas harboring MAPK pathway alterations; conditions: cited from earlier work
[4] = system: BRAF V600 mutant melanoma xenografts; parameters: method as in doi:10.1016/S1359-6349(10)71810-3; conditions: mice; tumors remaining sensitive to a second dosing cycle; cited from earlier work
[5] = parameters: method as in PMID 28082416; conditions: healthy brain and intracranial tumors (pediatric low-grade astrocytoma cells, KIAA1549-BRAF fusion); cited from earlier work
[6] = dose-escalation part, QW monotherapy, 8 patients with tumor RAF gene fusions

C[C@@H](NC(=O)c1ncnc(N)c1Cl)c1ncc(C(=O)Nc2cc(C(F)(F)F)c(Cl)cn2)s1 [tovorafenib]
median percentage decrease in pERK staining, day 21 vs baseline (pERK; H-score by a pathologist, BRAF mutation-positive previously treated cohort): ≥ 70% | median percentage decrease in pERK staining, day 21 vs baseline (pERK; H-score by a pathologist, BRAF mutation-positive treatment-naïve cohort): ≥ 70% | median percentage decrease in pERK staining, day 21 vs baseline (pERK; H-score by a pathologist, NRAS mutation-positive treatment-naïve cohort): ≥ 70% | median percentage decrease in pERK expression, day 21 vs baseline (pERK; H-score by a pathologist): 12% | median percentage decrease in pERK staining, day 21 vs baseline (pERK; quantitated image analysis, BRAF mutation-positive previously treated cohort): ≥ 70% | median percentage decrease in pERK staining, day 21 vs baseline (pERK; quantitated image analysis, NRAS mutation-positive treatment-naïve cohort): ≥ 70% | median percentage decrease in pERK expression, day 21 vs baseline (pERK; quantitated image analysis): 8% | clinical benefit rate [1]: 91% | overall response rate [1]: 64% | IC50 (BRAF V600E mutant): 7.1 nM | Fatal serious adverse event, MedDRA preferred term ([2]; dose escalation, 20 mg Q2D, study day of death 23, Not related): Respiratory failure | Fatal serious adverse event, MedDRA preferred term ([2]; dose escalation, 80 mg Q2D, study day of death 44, Not related): Colon cancer | Fatal serious adverse event, MedDRA preferred term ([2]; dose escalation, 280 mg Q2D, study day of death 28, Related): Respiratory failure | Fatal serious adverse event, MedDRA preferred term ([2]; dose escalation, 600 mg QW, study day of death 9, Not related): Colon cancer metastatic | Fatal serious adverse event, MedDRA preferred term ([2]; dose escalation, 600 mg QW, study day of death 28, Not related): Pancreatic carcinoma | Fatal serious adverse event, MedDRA preferred term ([2]; dose escalation, 800 mg QW, study day of death 31, Not related): Cardio-respiratory arrest | on-study deaths ([2]; dose expansion phase (7%)): 7 patients | Fatal serious adverse event, MedDRA preferred term ([2]; dose expansion, Q2D, study day of death 16, Not related): Small intestinal obstruction | Fatal serious adverse event, MedDRA preferred term ([2]; dose expansion, Q2D, study day of death 26, Not related): Sepsis | Fatal serious adverse event, MedDRA preferred term ([2]; dose expansion, Q2D, study day of death 43, Not related): Pneumonia | Fatal serious adverse event, MedDRA preferred term ([2]; dose expansion, Q2D, study day of death 61, Not related): Metastatic malignant melanoma | Fatal serious adverse event, MedDRA preferred term ([2]; dose expansion, Q2D, study day of death 67, Not related): Malignant melanoma | Fatal serious adverse event, MedDRA preferred term ([2]; dose expansion, Q2D, study day of death 81, Not related): Metastatic malignant melanoma | drug-related TEAE fatigue ([2]; human, in vivo): 42% | drug-related TEAE maculo-papular rash ([2]; human, in vivo): 36% | drug-related grade 3 or higher anemia ([2]; human, in vivo): 8% | drug-related grade 3 or higher hyperbilirubinemia ([2]; human, in vivo): 10% | drug-related grade 3 or higher maculo-papular rash ([2]; human, in vivo): 9% | generalized rash leading to dose reduction ([2]; human, in vivo): 3% | grade 3 or higher anemia ([2]; human, in vivo): 14% | grade 3 or higher maculo-papular rash ([2]; human, in vivo): 8% | maculo-papular rash leading to dose reduction ([2]; human, in vivo): 5% | maculo-papular rash resulting in permanent discontinuation ([2]; human, in vivo): 3% | sepsis resulting in permanent discontinuation ([2]; human, in vivo): 3% | squamous cell carcinoma of skin reported as TEAE ([2]; human, in vivo): < 1% | on-study deaths deemed treatment related ([2]; respiratory failure, 280 mg Q2D dose escalation cohort): one | on-study deaths ([2]; whole study, 149 patients): 13 | complete responses [3, 6]: 2 patients | partial responses [3, 6]: 3 patients | prolonged stable disease [3, 6]: two | patients with clinically meaningful activity ([3]; phase 1b part, 24 of 35 patients with MAPK pathway-altered cancers): 69% | complete responses ([3]; phase 1b part, 35 patients): 2 | partial responses ([3]; phase 1b part, 35 patients): 7 | stable diseases ([3]; phase 1b part, 35 patients): 15 | effect on large, established xenograft tumors [4]: caused tumor regression | blood–brain barrier penetration [5]: good blood–brain barrier penetration
